{"source": "paper PMC12820960", "about": "“Lactucopicrin: A Sesquiterpene Lactone with Anti-Inflammatory Activity Modulates the Crosstalk between NF-kB and AHR Pathways” (Journal of Medicinal Chemistry, 2025)", "target": "T1, Aryl Hydrocarbon Receptor (AHR) (Homo sapiens, UniProt P35869)", "T1 sequence (P35869 11-848)": "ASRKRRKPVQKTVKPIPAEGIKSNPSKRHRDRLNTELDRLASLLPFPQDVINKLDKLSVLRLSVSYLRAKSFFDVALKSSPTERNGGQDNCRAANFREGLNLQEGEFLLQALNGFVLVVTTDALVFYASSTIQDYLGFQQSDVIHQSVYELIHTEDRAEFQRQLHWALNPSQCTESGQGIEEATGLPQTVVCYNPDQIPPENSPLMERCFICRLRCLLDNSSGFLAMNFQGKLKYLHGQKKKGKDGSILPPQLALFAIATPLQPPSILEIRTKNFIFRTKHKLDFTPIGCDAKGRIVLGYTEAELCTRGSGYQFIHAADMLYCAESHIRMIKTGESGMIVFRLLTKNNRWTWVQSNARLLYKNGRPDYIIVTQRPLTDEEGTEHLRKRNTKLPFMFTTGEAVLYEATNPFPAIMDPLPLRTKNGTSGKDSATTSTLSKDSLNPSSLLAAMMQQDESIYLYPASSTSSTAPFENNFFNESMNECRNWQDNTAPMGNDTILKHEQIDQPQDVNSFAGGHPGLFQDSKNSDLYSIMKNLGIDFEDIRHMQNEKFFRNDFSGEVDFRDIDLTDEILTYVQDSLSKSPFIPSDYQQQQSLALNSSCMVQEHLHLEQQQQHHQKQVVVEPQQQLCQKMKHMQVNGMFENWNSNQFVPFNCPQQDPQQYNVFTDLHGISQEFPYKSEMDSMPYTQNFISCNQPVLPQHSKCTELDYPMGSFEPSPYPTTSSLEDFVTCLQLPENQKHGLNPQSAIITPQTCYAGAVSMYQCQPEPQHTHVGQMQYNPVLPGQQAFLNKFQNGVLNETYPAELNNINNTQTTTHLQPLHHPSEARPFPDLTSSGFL", "assay": "AHR luciferase reporter activation ([…]) in THP-1, Caco-2 and EA.hy926 cells", "assay_type": "cell-based", "data": [{"molecule": "O=C1/C(=C2\\Nc3ccccc3C2=O)Nc2ccccc21", "note": "[indigo]", "values": [{"measurement": "AHR luciferase reporter activation (1 uM) in THP-1, Caco-2 and EA.hy926 cells", "value": "AHR activation in THP-1 observed upon exposure to indigo, a known AHR agonist"}]}]}
